Results taken from patent publication US20250064932A1, “GLYCO-ENGINEERED CAR-T CELLS” (VIB VZW, priority 2021, published 2025).
Where two headings read alike, the source gives them in different places.

What was measured:
human CD8+ T cells = details: for T cell proliferation: IL-2
Description: Human CD8^+ T cells were purified and incubated with human T cell-activator CD3/CD28 dynabeads for T cell expansion and activation, and this in the presence of different cytokine combinations and increasing concentrations of DMSO. In order to evaluate the effect of DMSO on the proliferation of T cells in culture, cells were labeled with Tag-it Violet™ proliferation and cell tracking dye. […] Flow cytometry analysis was performed on multiple days following start up until day 11 in culture in order to evaluate T cell activation and differentiation markers.
(§1) For human T cell phenotyping, cells were labeled with fluorescent antibodies against human CD8, CD62L and CD45RA (BD Biosciences) and CD3, CD4, CD25, CD69, CD197 (CCR7), TIM-3 (CD366), CD152 (CTLA4) and CD279 (PD-1) (Biolegend). A Fixable dye eFluor™ 780 (eBioscience) was used to evaluate live/dead cells.
Peripheral blood lymphocytes were prepared by a Ficoll-Paque density centrifugation as described in the instruction manual for Leucosep™ (Greiner bio-one). CD8^+ T cells were isolated by negative selection (MojoSort™ Human CD8 T cell Isolation kit, Biolegend) according to the manufacture's protocol. Cells were cultured in RPMI 1640 medium (Gibco-BRL) supplemented with L-glutamine (0.03%, Gibco), 0.4 mM sodiumpyruvate (Merck Millipore) and 50 μM β-mercapto-ethanol (Sigma Aldrich) and 10% heat-inactivated fetal calf serum (FCS), in 48 well plates (Sarstedt) and stimulated with human anti-CD3/CD28 Dynabeads (1 bead:3 cell ratio) (Thermo Fisher Scientific) for 4 days at 37° C. Prior to cell seeding, Dynabeads and bead-bound cells were removed by separation on a magnet (after transfer to an Eppendorf tube) and the supernatant containing the CD8^+ T cells was collected. Cells were washed twice with PBS before putting them in culture with different cytokine combinations: (1) recombinant human (rh) IL-2 at 50 units/mL (Life Technologies); (2) rhIL-7 at 10 ng/mL (R&D systems) and rhIL-15 at 1 ng/mL (Miltenyi). Cytokines and medium were replaced every 2-3 days. Where indicated, increasing concentrations of DMSO (Sigma) were added as given by % v/v.
(§2) Human T cells were stained with Tag-it Violet™ Proliferation and Cell Tracking Dye (Biolegend), according to manufacturer's protocol.

[1] = test system: human lymphocytes and neutrophils; details: up to 1% v/v DMSO, PMA for 4 hours; cited from earlier work
lymphoma cell = details: cited from earlier work
CD4+ T cell = details: cited from earlier work
[2] = DMSO treated vs untreated, day 11, 1.2% DMSO

Excerpt for human CD3+ T cells: A protocol for in vitro isolation of CD3^+ T cell population used herein includes stimulation of purified human CD3^+ T cells in the presence of IL-12 and culturing in the presence of either IL-2 or IL-7/-15. This cultivation method provides for CD3^+ T cells populations skewed towards a naive phenotype. […] To this end, we validated the effect of DMSO on the activation and differentiation of CD3^+ T cells in the presence of IL-12 and subsequent culturing with different cytokine combinations.
We therefore evaluated the impact of increasing DMSO concentrations on the immunophenotype at day 14, and the impact of the highest DMSO concentration (1.2%) on the immunophenotype of CD3^+ T cell (sub)populations at day 13.
as §1
Leukocyte-enriched buffy coat samples were obtained from healthy donors attending the Red Cross center after informed consent and ethical committee approval (EC2019-1083). Peripheral blood lymphocytes were prepared by a Ficoll-Paque density centrifugation as described in the instruction manual for Leucosep™ (Greiner bio-one). CD3^+ T cells were isolated by negative selection (MojoSort™ Human CD3 T cell selection kit, Biolegend) according to the manufacture's protocol. Cells were cultured in IMDM+Glutamax medium (Gibco-BRL) supplemented with 10% heat-inactivated fetal calf serum (FCS) and stimulated with Immunocult™ Human CD3/CD28 T-Cell Activator (Stemcell Technologies) (25 μL/10^6 cells) for 3 days at 37° C. in the presence of 10 ng/mL IL-12 (Biolegend). Prior to cell seeding, cells were washed twice with PBS before putting them in culture with different cytokine combinations: (1) recombinant human (rh) IL-2 at 50 units/mL (Miltenyi); (2) rhIL-7 at 10 ng/mL (Miltenyi) and rhIL-15 at 10 ng/mL (Miltenyi). Cytokines and medium were replaced every 2-3 days. Cell densities were maintained between 1×10^6 and 3×10^6 cells/mL. Where indicated, increasing concentrations of DMSO (Sigma) were added as given by % v/v.
as §2

C[S+](C)[O-] [DMSO, Dimethyl sulfoxide]
cell surface marker expression (CD25, CD69, PD-1) (human CD3+ T cells; 1.2% DMSO): cell surface marker expression is increased
frequency of CD25 and CD69 positive cells (human CD3+ T cells; 1.2% DMSO, IL-7 and IL-15, day 13): increases in the presence of DMSO
CD3+ T cell differentiation (human CD3+ T cells; 1.2% DMSO, day 13): skews CD3^+ T cell differentiation towards a central memory phenotype
proportion of cells expressing PD-1 (human CD3+ T cells; 1.2% DMSO, day 13): seems to slightly increase
TCM population of CD8+ T cells (human CD3+ T cells; 1.2% DMSO, about 20% in the untreated condition): over 80%
expression of activation and exhaustion markers (CD25, CD69, PD-1) (human CD3+ T cells; DMSO up to 0.6%): does not alter the expression of activation and exhaustion markers
CD3+ T cell survival and subset distribution (human CD3+ T cells; human, 13 day, 1.2 % v/v): did not impact CD3^+ T cell survival nor CD4′/CD8′ subset distribution
CD3+ T cell survival and proliferation (human CD3+ T cells; human, 14 day): did not impact CD3^+ T cell survival and proliferation
impact on CD4+ T cell differentiation (human CD3+ T cells; increasing DMSO): less pronounced
CD4+/CD8+ subset distribution (human CD3+ T cells; increasing DMSO, day 14): does not have an impact on the subset distribution
effect on survival of the cells (human CD8+ T cells): does not have a negative effect on survival
survival rate (human CD8+ T cells): small increases in survival rate
T cell proliferation (human CD8+ T cells; 0.6% DMSO): still tolerated
T cell proliferation (human CD8+ T cells; 1.2% DMSO): marked decrease in T cell proliferation
CD8+ T cell differentiation (human CD8+ T cells; CD8+ T cells purified from the same donor, IL-12 stimulation, IL-7 and IL-15, 1.2% DMSO, day 13): clearly skewed from naïve-like towards a TCM phenotype
expression level of CD25 (human CD8+ T cells; [2]): lower
expression of CD69 (human CD8+ T cells; [2]): higher
decrease in proportion of CD8+ T cells expressing TIM-3 (human CD8+ T cells; IL-2, increasing DMSO): ~4%
proportion of cells expressing PD-1 after stimulation (human CD8+ T cells; IL-2, increasing DMSO): seems to decrease faster by day 7
T cell differentiation (human CD8+ T cells; IL-7 and IL-15): preferentially differentiate towards a TCM phenotype
DMSO concentration with inhibitory effect on T cell proliferation (human CD8+ T cells; IL-7 and IL-15, prolonged culture): ≥ 0.6%
TIM-3 expression level (human CD8+ T cells; fluorescence intensity, in the presence of DMSO): markedly reduced
frequency of CD25 positive cells (human CD8+ T cells; increasing DMSO (0.1%-1.2%)): decreases in time and with increasing DMSO concentration
proportion of CD69 positive cells (human CD8+ T cells; increasing DMSO (0.1%-1.2%)): increases with increasing concentrations of DMSO
T cell differentiation subsets (human CD8+ T cells; increasing DMSO, most clear with IL-2, day 11): a decrease in naive and effector CD8^+ T cells in favor of an increase in memory T cells
IFN-γ and TNF-α production in the cytoplasm [1]: did not change IFN-γ and TNF-α production
DMSO concentrations at which lymphoma cell death is prevented (lymphoma cell): 1-2%
DMSO concentrations that suppress CD4+ T cell activation, cell growth and cytokine secretion (CD4+ T cell): 0.1-1%
